Patent US20230304010A1, “COMPOSITIONS AND METHODS FOR TREATING VIRAL INFECTIONS” (priority 2020, published 2023)
Ends that are not written are not given here.

What was measured:
[1] = tested on: ACE2 : SARS-CoV-2 Spike Alpha (B1.1.7/United Kingdom) variant; format: binding; settings: read-out: IC50, Alpha (B117)
[2] = tested on: ACE2 : SARS-CoV-2 Spike Beta (B1.351/South Africa) variant; format: binding; settings: read-out: IC50, Beta (B1312)
[3] = tested on: ACE2 : SARS-CoV-2 Spike Gamma (P1/Brazil) variant; format: binding
[4] = tested on: ACE2 : SARS-CoV-2 Spike Delta (B1 617 2/India) variant; format: binding; settings: read-out: IC50, Delta (B1617)
[5] = tested on: ACE2 : SARS-CoV-2 Spike Epsilon (B1429) variant; format: binding
[6] = tested on: SARS-CoV-2 variants (Alpha/Beta/Delta); format: cell-based

In the case of “Ac-KTFLDKFNHEAEDLFPGPKWSAFLKEQSTLAQMYG [Seq28]”, the IC50 [1] is reported as 24.6 ± 11 nM, the IC50 [2] is reported as 31.5 ± 5 nM and the IC50 [3] is reported as 41.7 ± 11 nM. For the same substance, the IC50 [4] was 29.2 ± 11 nM, the IC50 [5] was 28.8 ± 7 nM and the “fold stronger anti-SARS-CoV-2 activity than Remdesivir” value [6] was 200 fold.
